The values that follow come from ChEMBL document CHEMBL5614423, “Proximal fleximer analogues of 2'-deoxy-2'-fluoro-2'-methyl purine nucleos(t)ides: Synthesis and preliminary pharmacokinetic and antiviral evaluation” (Bioorg Med Chem, 2024).

In one series the test system is Chikungunya virus. Put plainly: Antiviral activity against Chikungunya virus upto 100 uM. The class given is functional, organism-based.
Series [1] in a line: AUC in CD-1 mouse at 100 mg/kg measured for 24 hrs by MS analysis. The class given is ADME, organism-based. The following applies: in vivo.
Series [2] in a line: Half life in CD-1 mouse at 100 mg/kg by MS analysis. The class given is ADME, organism-based. As to conditions: in vivo.
The subject of the next series is Human alphaherpesvirus 1. Put plainly: Antiviral activity against HSV 1 upto 150 uM. It is filed as functional, organism-based.
Series [3] in a line: Toxicity in CD-1 mouse assessed as occurence of adverse event at 100 to 300 mg/kg, ip for 3 days. It is filed as organism-based. As to conditions: in vivo, 72 h, dose 100-300 mg/kg, time 3 day.
Series [4] relates to Middle East respiratory syndrome-related coronavirus. Put plainly: Antiviral activity against MERS CoV upto 100 uM. It is filed as functional, organism-based.
Another series relates to Cytomegalovirus. Put plainly: Antiviral activity against Cytomegalovirus upto 150 uM. The class given is functional, organism-based.
Series [5] can be described thus: Toxicity in CD-1 mouse assessed as drug tolerance at 100 to 300 mg/kg, ip for 3 days. The class given is organism-based. As to conditions: in vivo, 72 h, dose 100-300 mg/kg, time 3 day.
In the next series the test system is Nipah virus. Put plainly: Antiviral activity against Nipah virus upto 100 uM. It is filed as functional, organism-based. The following applies: Henipavirus nipahense.
In the next series the test system is dengue virus type 2. Put plainly: Antiviral activity against Dengue virus 2 upto 100 uM. The class given is functional, organism-based.
Another series has as its system Human gammaherpesvirus 4. Put plainly: Antiviral activity against Epstein Barr virus upto 150 uM. The class given is functional, organism-based.
Series [6] has as its system Zaire ebolavirus. Put plainly: Antiviral activity against Zaire Ebola virus upto 100 uM. It is filed as functional, organism-based.
Series [7] has as its system Zaire ebolavirus. Put plainly: Antiviral activity against Zaire Ebola virus. The class given is functional, organism-based.

Molecules are shown by their SMILES. pEC50: −log10 of the molar value. Active and inactive are the calls of the source. The calls are words filed in the database; no cut-off is given here.

For `CNc1nc(N)ncc1-c1cn([C@@H]2O[C@H](CO)[C@@H](O)[C@@]2(C)F)cn1`, the outcome (in the series with Chikungunya virus; in the series on Human alphaherpesvirus 1; in series [4]; in the series on Cytomegalovirus; in the series with Nipah virus; in the series on dengue virus type 2) was inactive. The result with Human gammaherpesvirus 4 and in the series on Zaire ebolavirus [6] was inactive. Further, the AUC (as a rule, the area under the concentration-time curve, a measure of exposure) in [1] came to 36000 ng·h/mL. Also, the half-life (as a rule, the time in which the quantity being followed falls by half) in [2] is 1 h. The Activity result in [3] and in series [5] was “Non-Toxic” throughout.

For `CNc1nc(N)ncc1-c1cn([C@@H]2O[C@H](CO[P@@](=O)(N[C@@H](C)C(=O)OC(C)C)Oc3ccccc3)[C@@H](O)[C@@]2(C)F)cn1`, the outcome (in the series on Chikungunya virus; with Human alphaherpesvirus 1; in series [4]; in the series with Cytomegalovirus; with Nipah virus; in the series with dengue virus type 2) was inactive. For the same compound, in the series on Human gammaherpesvirus 4, the result was inactive. Besides, in the series with Zaire ebolavirus [7], the negative logarithm of the EC50 (pEC50) (usually −log10 of the EC50, conventionally taken in molar units) was 4.52.
